The values that follow come from patent US11999746B2, “Compounds” (GlaxoSmithKline Intellectual Property Development Limited, priority 2014, dated 2024).

Counter-ions that a name gives are not always drawn. Like-named read-outs stand apart in the source and are kept apart here.

Test [1] has as its target T1, recombinant human Lp-PLA2 (Homo sapiens, UniProt Q13093).
T1 sequence (Q13093 22-441): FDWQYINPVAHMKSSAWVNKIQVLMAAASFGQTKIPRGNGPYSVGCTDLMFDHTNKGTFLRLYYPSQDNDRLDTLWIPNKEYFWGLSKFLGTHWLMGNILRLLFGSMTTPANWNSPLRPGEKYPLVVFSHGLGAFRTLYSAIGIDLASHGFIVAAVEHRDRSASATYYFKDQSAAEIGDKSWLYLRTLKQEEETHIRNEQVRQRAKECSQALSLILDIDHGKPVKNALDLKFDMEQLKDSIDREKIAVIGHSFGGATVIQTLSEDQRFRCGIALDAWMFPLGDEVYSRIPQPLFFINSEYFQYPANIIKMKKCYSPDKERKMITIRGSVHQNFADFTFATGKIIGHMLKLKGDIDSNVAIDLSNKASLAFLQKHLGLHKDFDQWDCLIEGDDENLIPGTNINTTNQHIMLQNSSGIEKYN
Kind of test: (1b) hrThioPAF assay, recombinant human Lp-PLA2. In kind it is biochemical. The following applies: Examples 266-412 were tested here, one experiment or average of multiple experiments, read-out: rhLp-PLA2 (pIC50) (converted). In short, it runs like this:
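Fluorogenic assay: 20 pM rhLp-PLA2 in 50 mM HEPES pH 7.4, 150 mM NaCl, 1 mM CHAPS with 1:3 serially diluted compounds; substrate mix of 40 μM 2-thio-PAF, 40 μM CPM, 400 μM NEM (pre-addition levels). 20 min at 25 °C in the dark; fluorescence ex 380/em 485 nm, pIC50 by curve fitting.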

The target in test [2] is T2, Lp-PLA2 in human plasma (Homo sapiens, UniProt Q13093).
T2 construct: from tissue; host or cells: pooled human plasma
T2 sequence (Q13093 22-441): T1 sequence (Q13093 22-441)
Kind of test: (3b) Lp-PLA2 human plasma alternative Thio-PAF assay. Type of test: biochemical. The following applies: pooled human plasma, read-out: pIC50 in the Lp-PLA2 human plasma assay (converted). In short, it runs like this:
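Pooled human plasma was preincubated with compound for 15 min at RT. Substrate solution (2 mM 2-thio-PAF, 52 μM CPM, 2.5 mM NEM in 50 mM HEPES pH 7.4, 150 mM NaCl, 1 mM CHAPS; pre-addition concentrations) was added, and the reaction was quenched with 5% TFA after 3 min. Fluorescence was read at ex 380/em 485 nm and fitted to give pIC50.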

Where [3] appears, read: (3b) alternative Thio-PAF assay, Examples of 266-412 were tested here.

As for `N#Cc1cc(COc2cc3n(c(=O)n2)CC2CSCCN32)ccc1F` (stereo not drawn) [Example E364, 2-Fluoro-5-(((9-oxo-1,3,4,9,11,11a-hexahydropyrimido[6′,1′:2,3]imidazo[5,1-c][1,4]thiazin-7-yl)oxy)methyl)benzonitrile], the IC50 is at most 0.1 µM in test [1] and at most 100 nM in test [2] (setting [3]).
For the compound `O=C([C@H]1CCCN1)N1CCN2c3cc(OCc4ccc(F)c(F)c4)nc(=O)n3CC2C1` (stereo partly drawn) [Example E343, 7-((3,4-Difluorobenzyl)oxy)-2-((R)-pyrrolidine-2-carbonyl)-3,4,11,11a-tetrahydro-1H-pyrazino[1,2′:3,4]imidazo[1,2-c]pyrimidin-9(2H)-one], the IC50 in test [1] was at most 10 µM; in test [2] (setting [3]), at most 100 nM.
The corresponding values for `O=c1nc(OCc2ccc(F)c(F)c2)cc2n1CC1(CCOCC1)N2` [Example 402, 7-((3,4-Difluorobenzyl)oxy)-2′,3′,5′,6′-tetrahydro-1H-spiro[imidazo[1,2-c]pyrimidine-2,4′-pyran]-5(3H)-one] are at most 10 µM and at most 100 nM.
As for `CCCN1CCN2c3cc(OCc4ccc(F)c(F)c4)nc(=O)n3CC2C1` (stereo not drawn) [Example E304, 7-((3,4-Difluorobenzyl)oxy)-2-propyl-3,4,11,11a-tetrahydro-1H-pyrazino[1′,2′:3,4]imidazo[1,2-c]pyrimidin-9(2H)-one], the IC50 is at most 10 µM in test [1] and at most 100 nM in test [2] (setting [3]).
The corresponding values for `CN(C)CCC(=O)N1CCN2c3cc(OCc4ccc(F)c(F)c4)nc(=O)n3CC2C1` (stereo not drawn) [Example E337, 7-((3,4-Difluorobenzyl)oxy)-2-(3-(dimethylamino)propanoyl)-3,4,11,11a-tetrahydro-1H-pyrazino[1,2′:3,4]imidazo[1,2-c]pyrimidin-9(2H)-one] are at most 10 µM and at most 100 nM.
As to `O=C([C@@H]1C[C@H](F)CN1)N1CCN2c3cc(OCc4ccc(F)c(F)c4)nc(=O)n3CC2C1` (stereo partly drawn) [Example E341, 7-((3,4-Difluorobenzyl)oxy)-2-((2S,4S)-4-fluoropyrrolidin-2-carbonyl)-3,4,11,11a-tetrahydro-1H-pyrazino[1′,2′:3,4]imidazo[1,2-c]pyrimidin-9(2H)-one], the IC50 is at most 10 µM in test [1] and at most 100 nM in test [2] (setting [3]).
For `NC1(C(=O)N2CCN3c4cc(OCc5ccc(F)c(F)c5)nc(=O)n4CC3C2)CCOCC1` (stereo not drawn) [Example E345, 2-(4-Aminotetrahydro-2H-pyran-4-carbonyl)-7-((3,4-difluorobenzyl)oxy)-3,4,11,11a-tetrahydro-1H-pyrazino[1,2′:3,4]imidazo[1,2-c]pyrimidin-9(2H)-one], the results for the IC50 in test [1] and in test [2] (setting [3]) were at most 10 µM and at most 100 nM, respectively.
For the compound `CC(C)C(=O)C(=O)N1CCN2c3cc(OCc4ccc(F)c(F)c4)nc(=O)n3CC2C1` (stereo not drawn) [Example E303, 1-(7-((3,4-Difluorobenzyl)oxy)-9-oxo-3,4,11,11a-tetrahydro-1H-pyrazino[1′,2′:3,4]imidazo[1,2-c]pyrimidin-2(9H)-yl)-3-methylbutane-1,2-dione], the IC50 in test [1] was at most 10 µM; in test [2] (setting [3]), at most 100 nM.
For `Cc1ccc(Oc2c(F)cc(COc3cc4n(c(=O)n3)CC3CN(C)CCN43)cc2F)cn1` (stereo not drawn) [Example E321, 7-((3,5-Difluoro-4-((6-methylpyridin-3-yl)oxy)benzyl)oxy)-2-methyl-3,4,11,11a-tetrahydro-1Hpyrazino[1′,2′:3,4]imidazo[1,2-c]pyrimidin-9(2H)-one] the same measures were at most 10 µM and at most 100 nM.
For `O=c1nc(OCc2cc(F)c(Oc3cncc(C(F)(F)F)c3)c(F)c2)cc2n1CC1(CCN(Cc3ccccc3)CC1)N2` [Example 411, 1′-Benzyl-7-((3,5-difluoro-4-((5-(trifluoromethyl)pyridin-3-yl)oxy)benzyl)oxy)-1H-spiro[imidazo[1,2-c]pyrimidine-2,4′-piperidin]-5(3H)-one], the IC50 in test [1] is at most 0.001 µM; in test [2] ((3a) Thio-PAF assay, Examples 1-265 and 413-430 were tested here) it was at most 10000 nM; in test [2] (setting [3]), at most 100 nM.
With `CN1c2cc(OCc3cc(F)c(Oc4cnn(C)c4)c(F)c3)nc(=O)n2CC12COC2` [Example E397, 7-((3,5-Difluoro-4-((1-methyl-1H-pyrazol-4-yl)oxy)benzyl)oxy)-1-methyl-1H-spiro[imidazo[1,2-c]pyrimidine-2,3′-oxetan]-5(3H)-one], the IC50 is at most 10 µM in test [1] and at most 100 nM in test [2] (setting [3]).
For `N#Cc1cc(COc2cc3n(c(=O)n2)CC2CN(C(=O)C4(N)CC4)CCN32)ccc1F` (stereo not drawn) [Example E297, 5-(((2-(1-Aminocyclopropanecarbonyl)-9-oxo-2,3,4,9,11,11a-hexahydro-1H-pyrazino[1′,2′:3,4]imidazo[1,2-c]pyrimidin-7-yl)oxy)methyl)-2-fluorobenzonitrile 2,2,2-trifluoroacetate] the same measures were at most 10 µM and at most 100 nM.
For `Cc1ccc(Oc2c(F)cc(COc3cc4n(c(=O)n3)CC3CNCCN43)cc2F)cn1` (stereo not drawn) [Example E279, 7-((3,5-Difluoro-4-((6-methylpyridin-3-yl)oxy)benzyl)oxy)-3,4,11,11a-tetrahydro-1H-pyrazino[1′,2′:3,4] imidazo [1,2-c]pyrimidin-9(2H)-one] the same measures were at most 10 µM and at most 100 nM.
Consider `O=c1nc(OCc2ccc(F)c(F)c2)cc2n1CC1COCCN21` (stereo not drawn) [Example E336, 7-((3,4-Difluorobenzyl)oxy)-3,4,11,11a-tetrahydropyrimido[6′,1′:2,3]imidazo[5,1-c][1,4] oxazin-9(1H)-one], for which the IC50 was at most 10 µM in test [1] and at most 100 nM in test [2] (setting [3]).
Consider `O=C1CN2c3cc(OCc4ccc(F)c(F)c4)nc(=O)n3CC2CN1CC(F)(F)F` (stereo not drawn) [Example E358, 7-((3,4-Difluorobenzyl)oxy)-2-(2,2,2-trifluoroethyl)-11,11a-dihydro-1Hpyrazino[1′,2′:3,4] imidazo[1,2-c]pyrimidine-3,9(2H,4H)-dione], for which the IC50 in test [1] was at most 10 µM; in test [2] (setting [3]), at most 100 nM.
Take `O=c1nc(OCc2cc(F)c(Oc3ccnc(C(F)(F)F)c3)c(F)c2)cc2n1CC1CNCCN21` (stereo not drawn) [Example E270, 7-((3,5-Difluoro-4-((2-(trifluoromethyl)pyridin-4-yl)oxy)benzyl)oxy)-3,4,11,11a-tetrahydro-1H-pyrazino[1′,2′:3,4] imidazo [1,2-c]pyrimidin-9(2H)-one]: the IC50 was at most 10 µM in test [1] and at most 100 nM in test [2] (setting [3]).
`O=C([C@@H]1CCCN1)N1CCN2c3cc(OCc4ccc(F)c(F)c4)nc(=O)n3CC2C1` (stereo partly drawn) [Example E340, 7-((3,4-Difluorobenzyl)oxy)-2-((S)-pyrrolidine-2-carbonyl)-3,4,11,11a-tetrahydro-1H-pyrazino[1,2′:3,4]imidazo[1,2-c]pyrimidin-9(2H)-one]: the IC50 in test [1] was at most 10 µM; in test [2] (setting [3]), at most 100 nM.
Turning to `O=c1nc(OCc2cc(F)c(Oc3ccnc(C(F)(F)F)c3)c(F)c2)cc2n1CC1C[S+]([O-])CCN21` (stereo not drawn) [Example E369, 7-((3,5-Difluoro-4-((2-(trifluoromethyl)pyridin-4-yl)oxy)benzyl)oxy)-3,4,11,11a-tetrahydropyrimido[6′,1′:2,3]imidazo[5,1-c][1,4]thiazin-9(1H)-one 2-oxide], the IC50 was at most 10 µM in test [1] and at most 100 nM in test [2] (setting [3]).
For `N#Cc1cccc(COc2cc3n(c(=O)n2)CC2CNCCN32)c1` (stereo not drawn) [Example E272, 3-(((9-Oxo-2,3,4,9,11,11a-hexahydro-1H-pyrazino[1′,2′:3,4]imidazo [1,2-c]pyrimidin-7-yl)oxy)methyl) benzonitrile] the same measures were at most 10 µM and at most 100 nM.
The corresponding values for `CN1CCN2c3cc(OCc4ccc(F)c(F)c4)nc(=O)n3CC2C1` (stereo not drawn) [Example E320, 7-((3,4-Difluorobenzyl)oxy)-2-methyl-3,4,11,11a-tetrahydro-1H-pyrazino[1,2′:3,4]imidazo[1,2-c]pyrimidin-9(2H)-one] are at most 10 µM and at most 100 nM.
The corresponding values for `NC1(C(=O)N2CCN3c4cc(OCc5ccc(F)c(F)c5)nc(=O)n4CC3C2)CC1` (stereo not drawn) [Example E333, 2-(1-Aminocyclopropanecarbonyl)-7-((3,4-difluorobenzyl)oxy)-3,4,11,11a-tetrahydro-1H-pyrazino[1′,2′:3,4]imidazo[1,2-c]pyrimidin-9(2H)-one hydrochloride] are at most 10 µM and at most 100 nM.
Regarding `N#Cc1cc(COc2cc3n(c(=O)n2)CC2CN(C(=O)C4CC4)CCN32)ccc1F` (stereo not drawn) [Example E292, 5-(((2-(cyclopropanecarbonyl)-9-oxo-2,3,4,9,11,11a-hexahydro-1H-pyrazino[1′,2′:3,4]imidazo[1,2-c]pyrimidin-7-yl)oxy)methyl)-2-fluorobenzonitrile 2,2,2-trifluoroacetate], the IC50 is at most 10 µM in test [1] and at most 100 nM in test [2] (setting [3]).
